The test has as its target BRAF^V600E protein (Homo sapiens, UniProt P15056, V600E). Briefly: HiBiT cellular BRAF V600E degradation assay. Format: cell-based. The settings on record: 24 h incubation; for DC50: A375.10 cells (HiBiT tag knocked in at N-terminal of BRAF V600E), concentration at which 50% of total cellular BRAF V600E is degraded; for Emax: A375.10 cells, Emax = amount of residual protein remaining in the cell after compound treatment, read-out: HiBit 24 h Emax. A general note: The HiBiT peptide binds its large partner to form an active luciferase.

Our source for the DC50 and Emax values is patent US12559492B2, “BRAF degraders” (C4 Therapeutics, Inc., priority 2020, dated 2026).

As a reminder, the DC50 is the concentration at which degradation of the target reaches its halfway point. A higher DC50 goes with a less potent degrader. What is called Emax is the maximal effect, on the per cent scale that the assay sets.

Each structure is given as a SMILES string.

Sequence of BRAF^V600E protein (P15056 whole entry V600E): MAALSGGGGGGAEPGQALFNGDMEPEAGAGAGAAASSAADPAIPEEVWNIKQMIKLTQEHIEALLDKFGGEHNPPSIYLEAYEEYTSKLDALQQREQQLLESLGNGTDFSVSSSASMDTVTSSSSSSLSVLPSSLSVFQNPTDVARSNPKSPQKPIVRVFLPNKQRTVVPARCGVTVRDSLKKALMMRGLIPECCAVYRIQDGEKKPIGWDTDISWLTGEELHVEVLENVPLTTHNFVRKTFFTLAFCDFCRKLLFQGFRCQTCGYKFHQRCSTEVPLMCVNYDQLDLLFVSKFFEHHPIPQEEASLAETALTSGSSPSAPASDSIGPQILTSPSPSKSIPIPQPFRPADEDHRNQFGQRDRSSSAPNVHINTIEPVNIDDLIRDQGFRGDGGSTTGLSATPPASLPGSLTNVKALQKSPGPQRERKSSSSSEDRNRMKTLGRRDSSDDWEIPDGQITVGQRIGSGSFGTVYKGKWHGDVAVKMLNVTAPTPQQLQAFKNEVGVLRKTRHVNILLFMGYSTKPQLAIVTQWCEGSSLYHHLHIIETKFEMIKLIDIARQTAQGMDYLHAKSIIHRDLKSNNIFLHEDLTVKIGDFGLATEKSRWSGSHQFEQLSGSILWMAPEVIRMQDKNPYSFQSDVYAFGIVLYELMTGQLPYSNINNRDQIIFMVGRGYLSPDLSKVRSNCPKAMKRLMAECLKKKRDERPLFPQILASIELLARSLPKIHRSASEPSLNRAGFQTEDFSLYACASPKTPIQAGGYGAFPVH

Regarding `CCN(C)S(=O)(=O)Nc1cc(F)cc(C(=O)c2c[nH]c3ncc(-c4ccc(N5CCN(C(=O)CC6(O)CCN(c7ccc(NC8CCC(=O)NC8=O)cc7F)CC6)CC5)nc4)cc23)c1F` (stereo not drawn) [Example 207, 5-[6-[4-[2-[1-[4-[(2,6-dioxo-3-piperidyl)amino]-2-fluoro-phenyl]-4-hydroxy-4-piperidyl]acetyl]piperazin-1-yl]-3-pyridyl]-3-[3-[[ethyl(methyl)sulfamoyl]amino]-2,5-difluoro-benzoyl]-1H-pyrrolo[2,3-b]pyridine], the DC50 was 1.23 nM and the Emax turned out to be 6.98%.

Turning to `CCN(C)S(=O)(=O)Nc1ccc(F)c(C(=O)c2c[nH]c3ncc(-c4ccc(N5CCN(C(=O)CC6(O)CCN(c7ccc(N[C@H]8CCC(=O)NC8=O)cc7Cl)CC6)CC5)nc4)cc23)c1F` [Example 208, 5-[6-[4-[2-[1-[2-chloro-4-[[(3S)-2,6-dioxo-3-piperidyl]amino]phenyl]-4-hydroxy-4-piperidyl]acetyl]piperazin-1-yl]-3-pyridyl]-3-[3-[[ethyl(methyl)sulfamoyl]amino]-2,6-difluoro-benzoyl]-1H-pyrrolo[2,3-b]pyridine], half-maximal degradation (DC50) was put at 1.73 nM and the Emax came to 7.34%.

With `CCN(C)S(=O)(=O)Nc1ccc(F)c(C(=O)c2c[nH]c3ncc(-c4cnc(N5CCN(C(=O)CC6(O)CCN(c7ccc(N[C@@H]8CCC(=O)NC8=O)cc7Cl)CC6)CC5)nc4)cc23)c1F` [Example 209, 5-[2-[4-[2-[1-[2-chloro-4-[[(3R)-2,6-dioxo-3-piperidyl]amino]phenyl]-4-hydroxy-4-piperidyl]acetyl]piperazin-1-yl]pyrimidin-5-yl]-3-[3-[[ethyl(methyl)sulfamoyl]amino]-2,6-difluoro-benzoyl]-1H-pyrrolo[2,3-b]pyridine], it took 0.76 nM to reach half-maximal degradation (DC50) and the Emax was found to be 5.52%.

As to `CCN(C)S(=O)(=O)Nc1ccc(F)c(C(=O)c2c[nH]c3ncc(-c4ccc(N5CCN(C(=O)CC6(O)CCN(c7ccc(NC8CCC(=O)NC8=O)cc7F)CC6)CC5)cc4F)cc23)c1F` (stereo not drawn) [Example 210, 5-[4-[4-[2-[1-[4-[(2,6-dioxo-3-piperidyl)amino]-2-fluoro-phenyl]-4-hydroxy-4-piperidyl]acetyl]piperazin-1-yl]-2-fluoro-phenyl]-3-[3-[[ethyl(methyl)sulfamoyl]amino]-2,6-difluoro-benzoyl]-1H-pyrrolo[2,3-b]pyridine], it took 7.69 nM to reach half-maximal degradation (DC50) and the Emax was 7.6%.

Regarding `CCN(C)S(=O)(=O)Nc1ccc(F)c(C(=O)c2c[nH]c3ncc(-c4cnc(N5CCN(C(=O)CC6(O)CCN(c7ccc(NC8CCC(=O)NC8=O)cc7F)CC6)CC5)c(S(C)(=O)=O)c4)cc23)c1F` (stereo not drawn) [Example 211, 5-[6-[4-[2-[1-[4-[(2,6-dioxo-3-piperidyl)amino]-2-fluoro-phenyl]-4-hydroxy-4-piperidyl]acetyl]piperazin-1-yl]-5-methylsulfonyl-3-pyridyl]-3-[3-[[ethyl(methyl)sulfamoyl]amino]-2,6-difluoro-benzoyl]-1H-pyrrolo[2,3-b]pyridine], the DC50 amounted to 11.3 nM and the Emax was 9.3%.

With `CCN(C)S(=O)(=O)Nc1ccc(F)c(C(=O)c2c[nH]c3ncc(-c4ccc(N5CCN(C(=O)CC6(O)CCN(c7ccc(NC8CCC(=O)NC8=O)cc7F)CC6)CC5)c(C(F)(F)F)c4)cc23)c1F` (stereo not drawn) [Example 212, 5-[4-[4-[2-[1-[4-[(2,6-dioxo-3-piperidyl)amino]-2-fluoro-phenyl]-4-hydroxy-4-piperidyl]acetyl]piperazin-1-yl]-3-(trifluoromethyl)phenyl]-3-[3-[[ethyl(methyl)sulfamoyl]amino]-2,6-difluoro-benzoyl]-1H-pyrrolo[2,3-b]pyridine], it took 32.8 nM to reach half-maximal degradation (DC50) and the Emax was determined as 7.02%.

Consider `CCN(C)S(=O)(=O)Nc1ccc(F)c(C(=O)c2c[nH]c3ncc(-c4cnc(N5CCN(C(=O)CC6(O)CCN(c7ccc(N8CCC(=O)NC8=O)cc7Cl)CC6)CC5)nc4)cc23)c1F` [Example 213, 5-[2-[4-[2-[1-[2-chloro-4-(2,4-dioxohexahydropyrimidin-1-yl)phenyl]-4-hydroxy-4-piperidyl]acetyl]piperazin-1-yl]pyrimidin-5-yl]-3-[3-[[ethyl(methyl)sulfamoyl]amino]-2,6-difluoro-benzoyl]-1H-pyrrolo[2,3-b]pyridine], for which it took 0.42 nM to reach half-maximal degradation (DC50) and the Emax was 6.06%.

As for `CCN(C)S(=O)(=O)Nc1ccc(F)c(C(=O)c2c[nH]c3ncc(-c4ccc(N5CCN(C(=O)CC6(O)CCN(c7ccc(N8CCC(=O)NC8=O)cc7Cl)CC6)CC5)nc4)cc23)c1F` [Example 214, 5-[6-[4-[2-[1-[2-chloro-4-(2,4-dioxohexahydropyrimidin-1-yl)phenyl]-4-hydroxy-4-piperidyl]acetyl]piperazin-1-yl]-3-pyridyl]-3-[3-[[ethyl(methyl)sulfamoyl]amino]-2,6-difluoro-benzoyl]-1H-pyrrolo[2,3-b]pyridine], the DC50 is 0.65 nM and the Emax amounted to 5.48%.

Turning to `CCN(C)S(=O)(=O)Nc1ccc(F)c(C(=O)c2c[nH]c3ncc(-c4ccc(N5CCN(C(=O)CC6(O)CCN(c7cc(F)c(N8CCC(=O)NC8=O)cc7Cl)CC6)CC5)nc4)cc23)c1F` [Example 215, 5-[6-[4-[2-[1-[2-chloro-4-(2,4-dioxohexahydropyrimidin-1-yl)-5-fluoro-phenyl]-4-hydroxy-4-piperidyl]acetyl]piperazin-1-yl]-3-pyridyl]-3-[3-[[ethyl(methyl)sulfamoyl]amino]-2,6-difluoro-benzoyl]-1H-pyrrolo[2,3-b]pyridine], the DC50 stood at 2.71 nM and the maximal effect (Emax) was 7.87%.

`CCN(C)S(=O)(=O)Nc1ccc(F)c(C(=O)c2c[nH]c3ncc(-c4cnc(N5CCN(C(=O)CC6(O)CCN(c7cc(F)c(N8CCC(=O)NC8=O)cc7Cl)CC6)CC5)nc4)cc23)c1F` [Example 216, 5-[2-[4-[2-[1-[2-chloro-4-(2,4-dioxohexahydropyrimidin-1-yl)-5-fluoro-phenyl]-4-hydroxy-4-piperidyl]acetyl]piperazin-1-yl]pyrimidin-5-yl]-3-[3-[[ethyl(methyl)sulfamoyl]amino]-2,6-difluoro-benzoyl]-1H-pyrrolo[2,3-b]pyridine]: the DC50 was determined as 1.33 nM and the Emax was determined as 7.4%.

For the molecule `CN(C1CC1)S(=O)(=O)Nc1ccc(F)c(C(=O)c2c[nH]c3ncc(-c4ccc(N5CCN(C(=O)CC6(O)CCN(c7ccc(NC8CCC(=O)NC8=O)cc7F)CC6)CC5)nc4)cc23)c1F` (stereo not drawn) [Example 217, 3-[3-[[cyclopropyl(methyl)sulfamoyl]amino]-2,6-difluoro-benzoyl]-5-[6-[4-[2-[1-[4-[(2,6-dioxo-3-piperidyl)amino]-2-fluoro-phenyl]-4-hydroxy-4-piperidyl]acetyl]piperazin-1-yl]-3-pyridyl]-1H-pyrrolo[2,3-b]pyridine], the DC50 is 62.2 nM and the maximal effect (Emax) stood at 21%.

On to `CCN(C)S(=O)(=O)Nc1ccc(F)c(C(=O)c2c[nH]c3ncc(-c4ccc(N5CCN(C(=O)CC6(O)CCN(c7cc(Cl)c(N8CCC(=O)NC8=O)cc7Cl)CC6)CC5)nc4)cc23)c1F` [Example 218, 5-[6-[4-[2-[1-[2,5-dichloro-4-(2,4-dioxohexahydropyrimidin-1-yl)phenyl]-4-hydroxy-4-piperidyl]acetyl]piperazin-1-yl]-3-pyridyl]-3-[3-[[ethyl(methyl)sulfamoyl]amino]-2,6-difluoro-benzoyl]-1H-pyrrolo[2,3-b]pyridine], for which the DC50 came to 4.1 nM and the Emax was 6.24%.
